These results are taken from patent publication US20260297031A1, “HYDROXYLAMINE-BASED BCR-ABL1 INHIBITORS FOR TREATMENT OF CANCER” (University of Georgia Research Foundation, Inc., priority 2023, published 2026).

pIC50: −log10 of the molar value. Entries after “also recorded” stand apart in the source; their conditions may differ.

The subject of data set [1] is P-glycoprotein (P-gp) and/or breast cancer resistance protein (BCRP). To be noted: cited from earlier work.
Data set [2] in a line: Metabolic stability in human hepatocytes. To be noted: for remaining at 0.5 min / remaining at 0.5 h / remaining at 1 h / remaining at 2 h: hepatocytes. The method, then: Metabolic Stability in Hepatocytes (Independently Performed by Pharmaron Inc., Ninqbo, CN)
After thawing was complete, hepatocytes were transferred into a 50 mL conical tube containing thawing medium and the tube was then placed into a centrifuge and spun at 100 g for 10 min. […] Using AO/PI staining, cells were counted to determine the viable cell density. […] Subsequently, 2 μL of the 100 μM test compounds or control compound solutions was transferred into the respective wells of the 96-well non-coated plate to start the reaction. […] Aliquots of 100 μL of the supernatant were then diluted by 100 μL of ultra-pure water, and the mixture was analyzed by LC-MS/MS.
All calculations were carried out using Microsoft Excel. Peak areas were determined from extracted ion chromatograms. The in-vitro half-life (t1/2) of parent compound was determined by regression of the percent parent disappearance vs. time curve.

In the next data set the target is cSRC (Homo sapiens, UniProt P12931). As to the kind of experiment: KinaseProfiler radiometric kinase assay, cSRC wt. To be noted: for pIC50: [ATP] = 10 μM, mean of n = 2. In kind it is biochemical.
Sequence of cSRC (P12931 whole entry): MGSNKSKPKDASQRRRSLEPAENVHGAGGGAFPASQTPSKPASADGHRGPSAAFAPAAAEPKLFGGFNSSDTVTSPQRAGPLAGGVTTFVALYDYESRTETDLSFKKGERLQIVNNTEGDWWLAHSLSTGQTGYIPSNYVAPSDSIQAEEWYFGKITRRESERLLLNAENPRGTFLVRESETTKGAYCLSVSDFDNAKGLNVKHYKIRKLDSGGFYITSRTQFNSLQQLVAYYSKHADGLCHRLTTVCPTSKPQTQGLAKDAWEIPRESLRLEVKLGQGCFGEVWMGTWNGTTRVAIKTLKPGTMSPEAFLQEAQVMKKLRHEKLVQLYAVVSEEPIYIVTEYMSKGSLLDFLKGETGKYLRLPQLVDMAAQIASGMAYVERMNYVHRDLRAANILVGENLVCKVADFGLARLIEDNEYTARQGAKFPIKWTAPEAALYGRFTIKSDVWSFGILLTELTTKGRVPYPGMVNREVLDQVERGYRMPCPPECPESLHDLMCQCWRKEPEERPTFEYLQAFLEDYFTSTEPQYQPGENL
The next data set concerns the target mutant BCR-ABL1. As to the kind of experiment: KinaseProfiler radiometric kinase assay, mutant BCR-ABL1 kinases as a group. It counts as biochemical, human. The text has this: Biochemical Human RTK Kinase Enzymatic Radiometric Assay, KinaseProfiler (Independently Performed by Eurofins Cerep SA, FR)
The target of a further data set is T1, BCR-ABL1 M351T (Homo sapiens, UniProt P00519, M351T).
T1 construct: BCR (fusion partner, as the printed name BCR-ABL1 says)
As to the kind of experiment: KinaseProfiler radiometric kinase assay, BCR-ABL1 M351T. It counts as biochemical. To be noted: [ATP] = 10 μM; mean of n = 2.

A short description of data set [3]: Plasma protein binding by equilibrium dialysis, human plasma. It counts as in vitro ADME. To be noted: human plasma; for % Unbound: 360 min, 5 µM. The method, then: Plasma Protein Binding by Equilibrium Dialysis (Independently Performed by Pharmaron Inc., Ninqbo, CN)
Initially, 1 mM solutions of test compounds and the control compound (Ketoconzaole) were prepared in DMSO. After this, dialysis membranes were soaked in ultrapure water for 60 min to separate strips, followed by 20% aq. ethanol for 20 min, and finally in a dialysis buffer for 20 min. […] After this, 597 μL of blank plasma solution followed by 3 μL of the working solutions of either test compounds or control compound were added to a new plastic plate or separate plastic tube and the solutions were vortexed at 1,000 rpm for 2 min. Immediately after this, 50 μL of spiked plasma solution suspension was transferred to a 96-well plate to act as T=0 control. The remaining samples were treated in the same manner, whereby all remaining spiked plasma solutions were added to the incubator for the duration of the study.
Cells were then loaded with 120 μL of the plasma samples and dialyzed against an equal volume of dialysis buffer (PBS). […] At the end of incubation, the lid was removed and 50 μL of post-dialysis samples were removed from both buffer and plasma solution chambers into a separate 96-well plate for analysis. The plasma solutions (50 μL) were then added to the buffer samples along with an equal volume of PBS (50 μL) to the collected plasma solution samples. The plate was shaken at 1,000 rpm for 2 min and 400 μL of acetonitrile containing an appropriate internal standard was added to precipitate protein and release compound. The samples were then vortexed at 1,000 rpm for an additional 10 min followed by centrifugation at 3,220 g for 30 min. Supernatant (250 μL) was then added to a new 96-well plate and centrifuged again at 3,220 g for 30 min and 100 μL of this supernatant was then added to a new 96-well plate for analysis. The samples were analyzed by LC-MS/MS and 100 μL of distilled water was added to each sample prior to analysis.
Concentrations of test compounds and control compound in buffer and plasma solution chambers was determined and percentages of test compounds and control compound bound using the following equations (mean of n=2 replicates): […]
(Equilibrium dialysis compares concentrations on both sides of a semipermeable membrane.)

Another data set has as its system Caco-2 cells. As to the kind of experiment: Caco-2 permeability. To be noted: Papp (b − a/a − b). The protocol: Caco-2 Permeability (Independently Performed by Pharmaron Inc., Ningbo, CN)
To each well of the Transwell insert and reservoir were added 50 μL and 25 mL of cell culture medium, respectively. […] Following this, the Caco-2 plate was removed from the incubator and the monolayer washed twice with pre-warmed HBSS (10 mM HEPES, pH 7.4).
To determine the rate of drug transport in the apical to basolateral direction, 125 μL of the working solution of either test compounds or control compounds was added to the Transwell insert (apical compartment) and a 50 μL sample was immediately transported from the apical compartment to 200 μL of acetonitrile containing internal standard (100 nM alprazolam, 200 nM Caffeine and 100 nM tolbutamide) in a new 96-well plate as the initial donor sample (A-B). The sample was then vortexed at 1,000 rpm for 10 min. The receiver plate (basolateral compartment) wells were then filled with 235 μL of transport buffer. To determine the rate of drug transport in the basolateral to apical direction, 285 μL of the working solution of either test compounds or control compounds was added to the receiver plate wells (basolateral compartment) and a 50 μL sample was immediately transferred from the basolateral compartment to 200 μL of acetonitrile containing internal standard in a new 96-well plate as the initial donor sample (B-A). The sample was vortexed at 1,000 rpm for 10 min. The Transwell insert (apical compartment) was then filled with 75 μL of transport buffer and the apical to basolateral direction and the basolateral to apical direction were done at the same time. […] After incubation, 50 μL samples from donor sides (apical compartment for Ap→BI flux, and basolateral compartment for BI→Ap) and receiver sides (basolateral compartment for Ap→BI flux, and apical compartment for BI→Ap) were transferred to wells of a new 96-well plate, followed by the addition of 200 μL acetonitrile containing internal standard. All samples were vortexed for 10 min and then centrifuged at 3,220 g for 40 min. A 150 μL aliquot of the supernatant was then mixed with an appropriate volume of ultra-pure water prior to LC-MS/MS analysis.
To monitor for monolayer integrity, Lucifer yellow leakage was determined after the 2 h transport period. This began by preparing a stock solution of Lucifer yellow in DMSO which was diluted with HBSS (10 mM HEPES, pH 7.4.) to reach a final concentration of 100 μM. To each Transwell insert (apical compartment) was then added 100 μL of the Lucifer yellow solution, followed by filling the wells in the receiver plate (basolateral compartment) with 300 μL of HBSS (10 mM HEPES, pH 7.4).
(§1) The efflux ratio was determined using the following equation: […]
(Caco-2 monolayers are a common model of the intestinal barrier.)

The target of a further data set is T2, BCR-ABL1 Q252H (Homo sapiens, UniProt P00519, Q252H).
T2 construct: BCR (fusion partner, as the printed name BCR-ABL1 says)
As to the kind of experiment: KinaseProfiler radiometric kinase assay, BCR-ABL1 Q252H. In kind it is biochemical. To be noted: [ATP] = 10 μM; mean of n = 2.

A further data set relates to MDCKII-MDR1 cells. As to the kind of experiment: MDCKII-MDR1 permeability. The note with it: MDCKII-MDR1. The protocol:
MDCKII-MDR1 Permeability (Independently Performed By: Pharmaron Inc., Ninqbo, CN)
To each well of the Transwell insert and reservoir were added 50 μL and 25 mL of cell culture medium, respectively.
To determine the rate of drug transport in the apical to basolateral direction, 125 μL of the working solution of either test compounds or control compounds was added to the Transwell insert (apical compartment) and a 50 μL sample was immediately transferred from the apical compartment to 200 μL of acetonitrile containing internal standard (100 nM alprazolam, 200 nM caffeine, and 100 nM tolbutamide) in a new 96-well plate as the initial donor sample (A-B). The sample was then vortexed at 1,000 rpm for 10 min. The receiver plate (basolateral compartment) wells were then filled with 235 μL transport buffer. To determine the rate of drug transport in the basolateral to apical direction, 285 μL of the working solution of either test compounds or control compounds was added to the receiver plate (basolateral compartment) wells and a 50 μL of sample was immediately transferred from the basolateral compartment to 200 μL of acetonitrile containing internal standard in a new 96-well plate as the initial donor sample (B-A). The sample was vortexed for 10 min at 1,000 rpm. The Transwell insert (apical compartment) was then filled with 75 μL of transport buffer and the apical to basolateral direction and the basolateral to apical direction were done at the same time. […] After incubation, 50 μL samples from donor sides (apical compartment for Ap→BI flux, and basolateral compartment BI→Ap) and receiver sides (basolateral compartment for Ap→BI flux, and apical compartment for BI→Ap) were transferred to wells of a new 96-well plate, followed by the addition of 200 μL acetonitrile containing internal standard. […] An aliquot of 100 μL of the supernatant was mixed with an appropriate volume of ultra-pure water before LC-MS/MS analysis.
To monitor for monolayer integrity, Lucifer yellow leakage was determined after the 2 h transport period. This began by preparing a stock solution of Lucifer yellow in DMSO and diluted with HBSS (10 mM HEPES, pH 7.4.) to reach a final concentration of 100 μM. To each Transwell insert (apical compartment) was then added 100 μL of the Lucifer yellow solution, followed by filling the wells in the receiver plate (basolateral compartment) with 300 μL of HBSS (10 mM HEPES, pH 7.4).
as §1

For the next data set, the target named is hERG channel (Homo sapiens, UniProt Q12809). Set-up: expressed in transfected cells; host or cells: HEK 293. The note with it: cited from earlier work.
Sequence of hERG channel (Q12809 whole entry): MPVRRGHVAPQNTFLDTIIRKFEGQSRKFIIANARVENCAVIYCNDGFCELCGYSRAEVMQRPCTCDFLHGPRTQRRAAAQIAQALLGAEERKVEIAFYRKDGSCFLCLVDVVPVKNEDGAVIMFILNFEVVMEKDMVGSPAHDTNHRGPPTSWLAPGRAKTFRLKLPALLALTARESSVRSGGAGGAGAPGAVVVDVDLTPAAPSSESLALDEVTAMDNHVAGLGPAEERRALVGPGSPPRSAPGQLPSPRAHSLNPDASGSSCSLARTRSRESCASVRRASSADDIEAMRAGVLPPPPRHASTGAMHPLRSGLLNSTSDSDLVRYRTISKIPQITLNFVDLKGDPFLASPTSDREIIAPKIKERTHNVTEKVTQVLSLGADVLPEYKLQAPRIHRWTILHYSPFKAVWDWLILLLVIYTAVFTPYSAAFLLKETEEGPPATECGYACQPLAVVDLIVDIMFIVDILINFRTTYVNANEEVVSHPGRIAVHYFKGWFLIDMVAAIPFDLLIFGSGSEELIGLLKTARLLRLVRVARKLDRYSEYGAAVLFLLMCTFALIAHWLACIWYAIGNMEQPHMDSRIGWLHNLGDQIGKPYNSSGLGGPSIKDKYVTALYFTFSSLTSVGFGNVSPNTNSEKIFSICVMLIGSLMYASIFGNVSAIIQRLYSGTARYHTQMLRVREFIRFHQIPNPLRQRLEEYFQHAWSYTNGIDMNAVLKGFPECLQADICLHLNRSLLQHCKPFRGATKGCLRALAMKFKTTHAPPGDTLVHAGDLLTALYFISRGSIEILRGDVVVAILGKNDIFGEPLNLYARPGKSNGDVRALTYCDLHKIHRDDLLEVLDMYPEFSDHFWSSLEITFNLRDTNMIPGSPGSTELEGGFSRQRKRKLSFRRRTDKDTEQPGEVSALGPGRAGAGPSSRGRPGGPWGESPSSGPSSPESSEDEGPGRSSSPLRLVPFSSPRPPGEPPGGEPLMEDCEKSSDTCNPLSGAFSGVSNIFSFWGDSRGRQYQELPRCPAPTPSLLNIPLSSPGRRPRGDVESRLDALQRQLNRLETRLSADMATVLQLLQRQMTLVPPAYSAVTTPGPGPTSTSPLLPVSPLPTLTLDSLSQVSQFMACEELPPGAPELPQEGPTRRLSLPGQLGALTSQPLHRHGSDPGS
Data set [4] is described as follows: Metabolic stability in mouse hepatocytes. In kind it is in vitro ADME. The note with it: read-out: Remaining Percentages. The protocol: All calculations were carried out using Microsoft Excel. Peak areas were determined from extracted ion chromatograms.

With `O=C(Nc1ccc(OC(F)(F)Cl)cc1)c1cnc(N2CC[C@@H](O)C2)c(-c2ccn[nH]2)c1` [Asciminib, asciminib], the “efflux transporter substrate (background)” value in data set [1] is on record as “P-gp substrates; also recorded: potent substrates for efflux transporters”.

In data set [2], `COc1cc2c(Nc3cccc(Cl)c3F)c(C#N)cnc2cc1OCCON1CCN(C)CC1` [Compound 16, 4-((3-Chloro-2-flurophenyl)amino)-6-methoxy-7-(2-((4-methylpiperazin-1-yl)oxy)ethoxy)quinoline-3-carbonitrile] returned a fraction remaining at 0.5 min of 100%, a share remaining at 0.5 h of 66.9%, a fraction remaining at 1 h of 45.1% and a share remaining at 2 h of 18.6%.

`COc1cc2c(Nc3cccc(OC)c3F)c(C#N)cnc2cc1OCCON1CCN(C)CC1` [Compound 18, 4-((2-Fluoro-3-methoxyphenyl)amino)-6-methoxy-7-(2-((4-methylpiperazin-1-yl)oxy)ethoxy)quinoline-3-carbonitrile] had a pIC50 against cSRC of 7.47. In data set [2], the share remaining at 0.5 min turned out to be 100%, the fraction remaining at 0.5 h came to 95.7%, the share remaining at 1 h is 80.4% and the amount remaining at 2 h is 54.9%. In addition, at mutant BCR-ABL1 (read-out: IC50 against (imatinib resistant / relevant) mutant BCR-ABL1 kinases, group of mutants), the pIC50 is no more than 7.82. The molecule further gave a pIC50 against BCR-ABL1 M351T of 7.62. Also, the “% Unbound” value in [3] came to 12.97%. The “Efflux Ratio” value in the data set on Caco-2 cells was 12.36. The molecule also had a pIC50 against BCR-ABL1 Q252H of 7.52.

In the case of `COc1cc(Nc2c(C#N)cnc3cc(OCCON4CCN(C)CC4)c(OC)cc23)ccc1Cl` [Compound 19], the pIC50 at cSRC is 8.70. Further, in data set [2], the “stability in hepatocytes, in words” value was “good stability in human hepatocytes”; the share remaining at 0.5 min was 100%; the share remaining at 0.5 h is 68.1%; the amount remaining at 1 h is 50.2%. Further, the share remaining at 2 h in data set [2] amounted to 25.5%. For the same molecule, the pIC50 on BCR-ABL1 M351T was 9.00. For the same molecule, in the data set with MDCKII-MDR1 cells, the “efflux (P-gp), in words” value is “reduced efflux ratios” and the “permeability in MDCKII-MDR1 cells, in words” value is on record as “markedly improved permeability”.

`COc1cc2c(Nc3ccc(Cl)c(OC)n3)c(C#N)cnc2cc1OCCON1CCN(C)CC1` [Compound 21, 4-((5-Chloro-6-methoxypyridin-2-yl)amino)-6-methoxy-7-(2-((4-methylpiperazin-1-yl)oxy)ethoxy)quinoline-3-carbonitrile]: on cSRC, the “cSRC kinase activity, in words” value is listed as “excellent activity”. Further, the “BCR-ABL1 kinase activity, in words” value in the data set on mutant BCR-ABL1 is “excellent activity”.

For `Cc1nc(Nc2ncc(C(=O)Nc3c(C)cccc3Cl)s2)cc(N2CCN(CCO)CC2)n1` [Dasatinib, dasatinib], on hERG channel, the “hERG liability, in words (background)” value is “reduced affinity for the hERG ion channel”. For the same molecule, in [1], the “efflux transporter substrate (background)” value is recorded as “P-gp substrates; also recorded: potent substrates for efflux transporters”.

As to `CC(=O)N1CCN(c2ccc(OCC3COC(Cn4ccnc4)(c4ccc(Cl)cc4Cl)O3)cc2)CC1` (stereo not shown) [Ketoconazole], the “% Unbound” value in data set [3] is recorded as 0.80%. Moreover, in data set [3] (read-out: % Bound (converted)), the fraction unbound at 6 h, 5 µM is 0.008.

For `Cc1cn(-c2cc(NC(=O)c3ccc(C)c(Nc4nccc(-c5cccnc5)n4)c3)cc(C(F)(F)F)c2)cn1` [Nilotinib, nilotinib], at hERG channel, the “hERG liability, in words (background)” value is reported as “inhibition of the human Ether-b-go-go-Related Gene (hERG) potassium ion channel”.

In data set [2], `COc1ccc(CCN(C)CCCC(C#N)(c2ccc(OC)c(OC)c2)C(C)C)cc1OC` (stereo not shown) [Verapamil, reference compound] returned a fraction remaining at 0.5 h of 35.6%, a share remaining at 1 h of 17.7% and a fraction remaining at 2 h of 4.83%. Besides, the fraction remaining at […] in data set [4] (15 min) came out at 16.7%. Moreover, in data set [4] (30 min), the fraction remaining at 0.5 h was 4.39%. Besides, the amount remaining at 1 h in data set [4] (60 min) was 1.24%.

For orientation: amount remaining means what is left of the initial amount, in per cent.
